Results reported in patent US5559232A, “Carboxamides” (Hoffmann-La Roche Inc., priority 1993, dated 1996).

Tests used:
human thrombin = human thrombin (Homo sapiens, UniProt P00734); assay: inhibition of the amidolytic activity of thrombin (chromogenic substrate S-2238); assay type: biochemical; conditions: for Ki: human thrombin 0.5 nM, substrate S-2238, pH 7.8, room temperature; for q (ratio of the inhibition of trypsin to the inhibition of thrombin): specificity: Ki trypsin / Ki thrombin
Protocol: A differential inhibition of thrombin and other serine proteases by the above compounds is desirable in order to obtain compounds having as high a specificity as possible and at the same time to avoid possible side-effects.
Specific chromogenic peptide substrates can be used to determine the inhibition of the catalytic activity of the above proteases. The inhibition of the amidolytic activity of thrombin and trypsin by the above guanidines was determined as described hereinafter.
The measurements were carried out on microtitre plates at room temperature. For this, in each well of the plate 150 μl of buffer (50 mM Tris, 100 mM NaCl, 0.1% polyethylene glycol; pH 7.8) were mixed with 50 μl of the inhibitor dissolved in DMSO and diluted in the buffer, and 25 μl of human thrombin (0.5 nM final conc.) were added. After incubation for 10 minutes the reaction was started by the addition of chromogenic substrate S-2238 (H-D-Phe-Pip-Arg-paranitroaniline from Kabivitrum; 10 or 50 μm final conc.) and the hydrolysis of the substrate was followed spectrophotometrically on a kinetic microtiter plate reader for 5 minutes. After graphical presentation of the inhibition curves the Ki values were determined according to the method described in Blochem. J. 55, 1955, 170-171.

trypsin = assay: inhibition of the amidolytic activity of trypsin (chromogenic substrate S-2251); assay type: biochemical; conditions: substrate S-2251, 200 and 750 μM, otherwise analogous to thrombin

Question: For `CCOC(=O)CN(C(=O)[C@H](CC(=O)NC[C@@H]1CCCN(C(=N)N)C1)NC(=O)NCc1ccco1)C1CC1` [Example 9b1, Ethyl [[(S)-3-[(S)-1-(amino-imino-methyl)-piperidin-3-ylmethylcarbamoyl]-2-(3-furan-2-ylmethyl-ureido)-propionyl]-cyclopropyl-amino]-acetate], which Ki (human thrombin) is on record?
Answer: 1.5 µM

Question: What about the “q (ratio of the inhibition of trypsin to the inhibition of thrombin)” value (human thrombin) of the same compound?
Answer: 53

Question: And the Ki (trypsin)?
Answer: 80 µM

Question: `N=C(N)N1CCC[C@@H](CNC(=O)C[C@H]2C(=O)N(C3CCCC3)CC(=O)N2S(=O)(=O)c2ccc3ccccc3c2)C1` [Example 16, N-[(S)-1-(amino-imino-methyl)-piperidin-3-ylmethyl]-2[(S)-4-cyclopentyl-1-naphthalen-2-ylsulphonyl-3,6-dioxopiperazin-2-yl]-acetamide] was tested. Which Ki (human thrombin) did it give?
Answer: 0.11 µM

Question: What about the “q (ratio of the inhibition of trypsin to the inhibition of thrombin)” value (human thrombin) of the same compound?
Answer: 127

Question: And the Ki (trypsin)?
Answer: 14 µM

Question: With `NC(=NO)N1CCC[C@@H](CNC(=O)C[C@H](NS(=O)(=O)c2ccc3ccccc3c2)C(=O)N(CCNC(=O)c2cnccn2)C2CC2)C1` [Example 22, (S)-N4-[(S)-1-(amino-hydroxyimino-methyl)-piperidin-3-ylmethyl]-N1-cyclopropyl-2-(naphthalen-2-ylsulphonylamino)-N1-[2-(pyrazin-2-ylcarbonylamino)-ethyl]-succinamide] as the compound, how does the Ki (human thrombin) read?
Answer: 0.0015 µM

Question: And the “q (ratio of the inhibition of trypsin to the inhibition of thrombin)” value (human thrombin)?
Answer: 11000

Question: And the Ki (trypsin)?
Answer: 16.5 µM

Question: What does the source list for `CCCCN(CC(=O)O)C(=O)[C@H](CC(=O)NCC1CN(C(=N)N)CCO1)NC(=O)OCc1ccccc1` (stereo partly drawn) [Example 6b, [[(S)-3-[4-(amino-imino-methyl)-morpholin-2-ylmethylcarbamoyl]-2-benzyloxycarbonylamino-propionyl]-butyl-amino]-acetic acid]?
Answer: Ki (human thrombin): 0.0035 µM; q (ratio of the inhibition of trypsin to the inhibition of thrombin) (human thrombin): 18571; Ki (trypsin): 65 µM

Question: With `CCOC(=O)CN(C(=O)[C@H](CC(=O)NC[C@@H]1CCCN(C(=N)N)C1)NC(=O)c1ccccc1)C1CC1` [Example 13d, ethyl [[(S)-3-[(S)-1-(amino-imino-methyl)-piperidin-3-ylmethylcarbamoyl]-2-benzoylamino-propionyl]-cyclopropyl-amino]-acetate] as the compound, how does the Ki (human thrombin) read?
Answer: 4.7 µM

Question: What about the “q (ratio of the inhibition of trypsin to the inhibition of thrombin)” value (human thrombin) of the same compound?
Answer: 5

Question: And the Ki (trypsin)?
Answer: 23.5 µM

Question: `N=C(N)N1CCC[C@@H](CNC(=O)C[C@H](NS(=O)(=O)N2CCOCC2)C(=O)N(CCNC(=O)OCc2ccccc2)C2CC2)C1` [Example 23, benzyl 2-[[(S)-3-[(S)-1-(amino-imino-methyl)-piperidin-3-ylmethylcarbamoyl]-2-morpholin-4-ylsulphonylamino-propionyl]cyclopropyl-amino]-ethylcarbamate] was tested. Which Ki (human thrombin) did it give?
Answer: 0.0046 µM

Question: And the “q (ratio of the inhibition of trypsin to the inhibition of thrombin)” value (human thrombin)?
Answer: 2826

Question: What about the Ki (trypsin) of the same compound?
Answer: 13 µM

Question: How did the Ki (human thrombin) turn out when `N=C(N)N1CCC[C@@H](CNC(=O)C[C@H](NC(=O)Cc2ccccc2)C(=O)N(CC(=O)O)C2CC2)C1` [Example 14e, [[(S)-3-[(S)-1-(amino-imino-methyl)-piperidin-3-ylmethylcarbamoyl]-2-benzylcarbonylamino-propionyl]-cyclopropyl-amino]acetic acid] was run?
Answer: 0.081 µM

Question: What about the “q (ratio of the inhibition of trypsin to the inhibition of thrombin)” value (human thrombin) of the same compound?
Answer: 852

Question: And the Ki (trypsin)?
Answer: 69 µM

Question: `CCCCC(=O)N[C@@H](CC(=O)NC[C@@H]1CCCN(C(=N)N)C1)C(=O)N(CC(=O)O)C1CC1` [Example 14a, [[(S)-3-[(S)-1-(Amino-imino-methyl)-piperidin-3-ylmethylcarbamoyl]-2-pentanoylamino-propionyl]-cyclopropyl-amino]acetic acid] was tested. Which Ki (human thrombin) did it give?
Answer: 0.019 µM

Question: What about the “q (ratio of the inhibition of trypsin to the inhibition of thrombin)” value (human thrombin) of the same compound?
Answer: 3368

Question: And the Ki (trypsin)?
Answer: 64 µM

Question: With `CCCCN1CC(=O)N[C@@H](CC(=O)NC[C@@H]2CCCN(C(=N)N)C2)C1=O` [Example 18, N-[(S)-1-(amino-imino-methyl)-piperidin-3-ylmethyl]-2-[(S)-2,6-dioxo-4-butyl-piperazin-2-yl]-acetamide] as the compound, how does the Ki (human thrombin) read?
Answer: 2.2 µM

Question: What about the “q (ratio of the inhibition of trypsin to the inhibition of thrombin)” value (human thrombin) of the same compound?
Answer: 268

Question: What about the Ki (trypsin) of the same compound?
Answer: 590 µM

Question: `N=C(N)N1CCC[C@@H](CNC(=O)C[C@H](NC(=O)NCc2ccccc2)C(=O)N(CC(=O)O)C2CC2)C1` [Example 11, [[(S)-3-[(S)-1-(amino-imino-methyl)-piperidin-3-ylmethylcarbamoyl]2-(3-benzyl-ureido)-propionyl]-cyclopropyl-amino]-acetic acid] was tested. Which Ki (human thrombin) did it give?
Answer: 0.043 µM

Question: And the “q (ratio of the inhibition of trypsin to the inhibition of thrombin)” value (human thrombin)?
Answer: 814

Question: And the Ki (trypsin)?
Answer: 35 µM

Question: Which Ki (human thrombin) does the source give for `N=C(N)N1CCC[C@@H](CNC(=O)C[C@H](NC(=O)OCc2ccccc2)C(=O)N(CCC(=O)O)C2CC2)C1` [Example 4a, 3-[[(S)-3-[(S)-1-(Amino-imino-methyl)-piperidin-3-ylmethylcarbamoyl]-2-benzyloxycarbonylamino-propionyl]-cyclopropylamino]-propionic acid] here?
Answer: 0.079 µM

Question: What about the “q (ratio of the inhibition of trypsin to the inhibition of thrombin)” value (human thrombin) of the same compound?
Answer: 1051

Question: What about the Ki (trypsin) of the same compound?
Answer: 83 µM

Question: For `CCOC(=O)CN(C(=O)[C@H](CC(=O)NC[C@@H]1CCCN(C(=N)N)C1)NC(=O)OCC1CCCCC1)C1CC1` [Example 7, ethyl [[(S)-3-[(S)-1-(amino-imino-methyl)-piperidin-3-ylmethylcarbamoyl]-2-cyciohexylmethoxycarbonylamino-propionyl]-cyclopropyl-amino]-acetate], which Ki (human thrombin) is on record?
Answer: 2 µM

Question: What about the “q (ratio of the inhibition of trypsin to the inhibition of thrombin)” value (human thrombin) of the same compound?
Answer: 25

Question: And the Ki (trypsin)?
Answer: 50 µM

Question: With `CCCCN(CC(=O)OCC)C(=O)[C@H](CC(=O)NCC1CN(C(=N)N)CCO1)NC(=O)OCc1ccccc1` (stereo partly drawn) [Example 5b, ethyl [[(S)-3-[4-(amino-imino-methyl)-morpholin-2-ylmethylcarbamoyl]-2-benzyloxycarbonylaminopropionyl]-butyl-amino]-acetate] as the compound, how does the Ki (human thrombin) read?
Answer: 0.03 µM

Question: What about the “q (ratio of the inhibition of trypsin to the inhibition of thrombin)” value (human thrombin) of the same compound?
Answer: 5000

Question: What about the Ki (trypsin) of the same compound?
Answer: 150 µM

Question: `CCOC(=O)CN(C(=O)[C@H](CC(=O)NC[C@@H]1CCCN(C(=N)N)C1)NC(=O)NCc1ccccc1)C1CC1` [Example 9a, ethyl [[(S)-3-[(S)-1-(amino-imino-methyl)-piperidin-3-ylmethylcarbamoyl]-2-(3-benzyi-ureido)-propionyl]-cyclopropylamino]-acetate] was tested. Which Ki (human thrombin) did it give?
Answer: 1.3 µM

Question: What about the “q (ratio of the inhibition of trypsin to the inhibition of thrombin)” value (human thrombin) of the same compound?
Answer: 73

Question: And the Ki (trypsin)?
Answer: 95 µM

Question: `CCOC(=O)CN(C(=O)[C@H](CC(=O)NC[C@@H]1CCCN(C(=N)N)C1)NC(=O)Cc1ccccc1)C1CC1` [Example 13e] was tested. Which Ki (human thrombin) did it give?
Answer: 2.6 µM

Question: What about the “q (ratio of the inhibition of trypsin to the inhibition of thrombin)” value (human thrombin) of the same compound?
Answer: 35

Question: What about the Ki (trypsin) of the same compound?
Answer: 91 µM

Question: What does the source list for `N=C(N)N1CCC[C@@H](CNC(=O)C[C@H](NC(=O)c2cc(Cl)ccn2)C(=O)N(CC(=O)O)C2CC2)C1` [Example 14c, [[(S)-3-[(S)-1-(amino-imino-methyl)-piperidin-3-ylmethylcarbarnoyl]-2-(4-chloro-pyridin-2-ylcarbonylamino)-propionyl]cyclopropyl-amino]-acetic acid]?
Answer: Ki (human thrombin): 0.057 µM; q (ratio of the inhibition of trypsin to the inhibition of thrombin) (human thrombin): 877; Ki (trypsin): 50 µM

Question: Which results are given for `CCOC(=O)CN(C(=O)[C@H](CC(=O)NCC1CN(C(=N)N)CCO1)NC(=O)OCc1ccccc1)C1CC1` (stereo partly drawn) [Example 5a, ethyl [[(S)-3-[4-(amino-imino-methyl)-morpholin-2-ylmethylcarbamoyl]-2-benzyloxycarbonylaminopropionyl]-cyclopropyl-amino]-acetate]?
Answer: Ki (human thrombin): 8.9 µM; q (ratio of the inhibition of trypsin to the inhibition of thrombin) (human thrombin): 26; Ki (trypsin): 231 µM

Question: Which results are given for `COC(=O)CC[C@H](O)C(=O)N[C@@H](CC(=O)NC[C@@H]1CCCN(C(=N)N)C1)C(=O)N(CCNC(=O)c1cnccn1)C1CC1` [Example 21b, methyl (S)-4-[(S)-2-[(S)-1-(amino-imino-methyl)-piperidin-3-ylmethylcarbonyl]-1-[cyclopropyl-(2-pyrazin-2-ylcarbonylaminoethyl)-carbamoyl]-ethylcarbamoyl]-4-hydroxy-butrate]?
Answer: Ki (human thrombin): 0.0072 µM; q (ratio of the inhibition of trypsin to the inhibition of thrombin) (human thrombin): 1944; Ki (trypsin): 14 µM

Question: What does the source list for `N=C(N)N1CCC[C@@H](CNC(=O)C[C@H](NC(=O)CCc2c[nH]c3ccccc23)C(=O)N(CCNC(=O)c2cnccn2)C2CC2)C1` [Example 21a, (S)-N4-[(S)-1-(amino-imino-methyl)-piperidin-3-ylmethyl]-N1-cyclopropyl-2-(3-indol-3-yl-propionylamino)-N1-(2-pyrazin-2-ylcarbonylamino-ethyl)-succinamide]?
Answer: Ki (human thrombin): 0.0023 µM; q (ratio of the inhibition of trypsin to the inhibition of thrombin) (human thrombin): 3870; Ki (trypsin): 8.9 µM

Question: What does the source list for `N=C(N)N1CCC[C@@H](CNC(=O)C[C@H](NC(=O)OCc2ccccc2)C(=O)N(CC(=O)O)C2CC2)C1` [Example 3, [[(S)-3-[(S)-1-(amino-imino-methyl)-piperidin-3-ylmethylcarbamoyl]-2-benzyloxycarbonylamino-propionyl]-cyclopropylamino]-acetic acid]?
Answer: Ki (human thrombin): 0.012 µM; q (ratio of the inhibition of trypsin to the inhibition of thrombin) (human thrombin): 1583; Ki (trypsin): 19 µM

Question: `CCCCCC(=O)N[C@@H](CC(=O)NC[C@@H]1CCCN(C(=N)N)C1)C(=O)N(CC(=O)OCC)C1CC1` [Example 13b, ethyl [[(S)-3-[(S)-1-(amino-imino-methyl)-piperidin-3-ylmethylcarbamoyl]-2-hexanoylamino-propionyl]-cyclopropyl-amino]acetate] was tested. Which Ki (human thrombin) did it give?
Answer: 0.41 µM

Question: And the “q (ratio of the inhibition of trypsin to the inhibition of thrombin)” value (human thrombin)?
Answer: 183

Question: And the Ki (trypsin)?
Answer: 75 µM
